# Data: patent US20100099693A1, “NEW COMBINATION FOR USE IN THE TREATMENT OF INFLAMMATORY DISORDERS” (priority 2007, published 2010)
# What was measured:
# [1] = tested on: Rat aortic smooth muscle cells (RASMC); assay: Rat aortic smooth muscle cell proliferation assay (WST-1 reagent, 5% FBS stimulated); type: cell-based; conditions: single drug, 48 hours, F-12/5% FBS; for inhibition at 0.1 µM: final concentration 0.1 μM; for inhibition at 0.1 µM / inhibition at 1 µM / inhibition at 10 µM: mean n=3; for inhibition at 1 µM: final concentration 1 μM; for inhibition at 10 µM: final concentration 10 μM
# Procedure: Rat aortic smooth muscle cells (RASMC) were isolated as previously described (Hellin et al, Arterioscler. Thromb. Vasc. Biol., 17, 1977 (1997)). The cells were cultired (37° C./5% CO2) in Ham's medium F-12 supplemented with 10% fetal bovine serum (FBS), 50 μg/mL L-ascorbic acid, 50 μg/mL streptomycin and 50 IU/mL penicillin (F-12/10% FBS), grown to confluence, serially passaged by trypsinization, and used in experiments after 2-7 passages. The RASMC were seeded in 96-well plates at a density of approximately 5×10^3 cells per well in F-12/10% FBS (100 μl per well). After 72 hours, the cells were synchronized in G0/G1 phase by starvation in Ham's medium F-12 supplemented with 0.1% bovine serum albumin (BSA), 50 μg/mL L-ascorbic acid, 50 μg/mL streptomycin and 50 IU/mL penicillin (F-12/0.1% BSA) for 48 hours. After the starvation, the cells were 70-80% confluent. The experiment was then started by changing to F-12 medium containing 5% FBS, 50 μg/mL L-ascorbic acid, 50 μg/mL streptomycin and 50 IU/mL penicillin (F-12/5% FBS), without (positive control cells) or with the test drugs (drug treated cells) as described below. For comparison, some cells remained in F-12/0.1% BSA (negative control cells).
# Proliferation of the RASMC cells was measured using the Cell Proliferation Reagent WST-1 (Roche Diagnostics Scandinavia AB, Bromma, Sweden). The WST-1 reagent is designed to be used for spectrophotometric quantification of e.g. cell growth in proliferation assays and was used according to the manufacturers' instructions. The wavelength for measuring absorbance was 450 nm and the absorbance of all untreated positive control cells exposed to the WST-1 reagent was between 1 and 2.7.
# Stock solutions of ramatroban (sodium salt; see Example 19 above) and rosuvastatin (sodium salt; see Example 19 above) were made in sterile saline.
# 48 hours after start of the experiment as described above, the mean positive control RASMC proliferation (measured using the WST-1 reagent) was 225% of that of the negative control RASMC (n=12 in both groups). The effects of ramatroban and/or rosuvastatin (added to cells in F-12/5% FBS at the start of the experiment) on RASMC proliferation were studied 48 hours after start of the experiment.
# The procedure described in Example 22 was repeated for atorvastatin (sodium salt; see Example 20 above).
# The procedure described in Example 22 was repeated for simvastatin (sodium salt; see Example 21 above).
# MonoMac-6 (MM6) cells = assay: MonoMac-6 macrophage proliferation assay (WST-1 reagent); type: cell-based, human; conditions: single drug, 48 hours; for inhibition at 100 µM / inhibition at 10 µM / inhibition at 30 µM: Homo sapiens, MONO-MAC-6, WST-1, mean n=4; for inhibition at 100 µM: final concentration 100 μM; for inhibition at 10 µM: final concentration 10 μM; for inhibition at 30 µM: final concentration 30 μM
# Procedure: Cells from the human macrophage cell-line MonoMac-6 (MM6) (Ziegler-Heitbrock et al, Int. J. Cancer, 41, 456 (1988)) were cultured (37° C./5% CO2) in RPMI-1640 medium supplemented with 1 mM sodium pyruvate, 1× nonessential amino acids, 1-100 μg/mL insulin, 1 mM oxalacetic acid, 100 units/mL penicillin, 100 μg/mL streptomycin and 10% (v/v) fetal bovine serum. At the start of the experiment, MM6 cells were seeded in 96-well plates at a density of 1×10^5 cells/mL (100 μl per well). Proliferation of the MM6 cells was measured using the Cell Proliferation Reagent WST-1 (Roche Diagnostics Scandinavia AB, Bromma, Sweden) or by cell counting using a microscope. The WST-1 reagent is designed to be used for spectrophotometric quantification of e.g. cell growth in proliferation assays and was used according to the manufacturers' instructions. The wavelength for measuring absorbance was 450 nm and the absorbance of all untreated control cells exposed to the WST-1 reagent was between 1.0 and 2.5. Stock solutions of ramatroban (sodium salt; ramatroban was purchased from Cayman Chemical, Ann Arbor, Mich., USA as free acid and converted to sodium salt by adding one equivalent of aqueous NaOH) and rosuvastatin (sodium salt; rosuvastatin was extracted and purified from commercially available Crestor® tablets and isolated as sodium salt as described in Bioorganic & Medicinal Chemistry, Vol. 5, No. 5, pp 437-444, 1997) were made in sterile saline.
# The effects of ramatroban and/or rosuvastatin (added at the start of the experiments) on MM6 cell proliferation were studied 48 hours after start of the experiments using the WST-1 reagent described above.
# The procedure described in Example 19 was repeated for atorvastatin (sodium salt; received as atorvastatin calcium as a gift from Biocon, Ltd., Bangalore, India and converted into sodium salt by firstly converting the calcium salt into the free acid by addition of aqueous hydrochloric acid and then, after isolation via extraction, adding one equivalent of aqueous NaOH).
# The procedure described in Example 19 was repeated for simvastatin (sodium salt; simvastatin was received as the lactone as a gift from Biocon, Ltd., Bangalore, India and isolated as the sodium salt following lactone ring opening via hydrolysis using one equivalent of NaOH in water and ethanol at 60° C.).
SMILES,"inhibition at 100 µM ([1]; final concentration 100 μM, mean n=6) [%]",inhibition at 100 µM (MonoMac-6 (MM6) cells) [%],"effect on MM6 proliferation (in words) (MonoMac-6 (MM6) cells; 10 μM, data not shown)",inhibition at 0.1 µM [1] [%],inhibition at 1 µM [1] [%],inhibition at 10 µM [1] [%],inhibition at 10 µM (MonoMac-6 (MM6) cells) [%],inhibition at 30 µM (MonoMac-6 (MM6) cells) [%]
O=C(O)CCn1c2c(c3ccccc31)C[C@H](NS(=O)(=O)c1ccc(F)cc1)CC2 [ramatroban],11.9,15.2,effect similar to that of 100 μM of ramatroban,–,–,–,–,–
CC(C)c1c(C(=O)Nc2ccccc2)c(-c2ccccc2)c(-c2ccc(F)cc2)n1CC[C@@H](O)C[C@@H](O)CC(=O)O [atorvastatin],–,71.7,–,27.4,0,18.9,16.8,27.8
CCC(C)(C)C(=O)O[C@H]1C[C@@H](C)C=C2C=C[C@H](C)[C@H](CC[C@@H]3C[C@@H](O)CC(=O)O3)[C@H]21 [simvastatin],–,85,–,23.8,0,74.3,21.3,68.1
CC(C)c1nc(N(C)S(C)(=O)=O)nc(-c2ccc(F)cc2)c1/C=C/[C@@H](O)C[C@@H](O)CC(=O)O [rosuvastatin],–,70.1,–,5.3,0,21.7,11.5,31.2
